Source: PubChem BioAssay (NCI)
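Growth conditions: 96-well plates. Treatment: test compound, 48 hours, 5 concentrations. Analysis: linear interpolation between bracketing concentrations; unreached endpoints set to highest concentration. TGI marks complete inhibition of growth.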

Legend:
Test in all cases: growth of human tumour cells (NCI), 48 h
786-0 renal = test system: 786-0 renal
A498 renal = test system: A498 renal
A549 NSCLC = test system: A549 NSCLC
ACHN renal = test system: ACHN renal
BT-549 breast = test system: BT-549 breast
CAKI-1 renal = test system: CAKI-1 renal
CCRF-CEM leukemia = test system: CCRF-CEM leukemia
COLO 205 colon = test system: COLO 205 colon
DU-145 prostate = test system: DU-145 prostate
EKVX NSCLC = test system: EKVX NSCLC
HCC-2998 colon = test system: HCC-2998 colon
HCT-116 colon = test system: HCT-116 colon
HCT-15 colon = test system: HCT-15 colon
HOP-62 NSCLC = test system: HOP-62 NSCLC
HOP-92 NSCLC = test system: HOP-92 NSCLC
HS 578T breast = test system: HS 578T breast
HT29 colon = test system: HT29 colon
IGROV1 ovarian = test system: IGROV1 ovarian
K-562 leukemia = test system: K-562 leukemia
KM12 colon = test system: KM12 colon
LOX IMVI melanoma = test system: LOX IMVI melanoma
M14 melanoma = test system: M14 melanoma
MALME-3M melanoma = test system: MALME-3M melanoma
MCF7 breast = test system: MCF7 breast
MDA-MB-231 breast = test system: MDA-MB-231 breast
MDA-MB-435 = test system: MDA-MB-435
MDA-N = test system: MDA-N
MOLT-4 leukemia = test system: MOLT-4 leukemia
NCI-H226 lung = test system: NCI-H226 lung
NCI-H23 lung = test system: NCI-H23 lung
NCI-H460 lung = test system: NCI-H460 lung
NCI-H522 lung = test system: NCI-H522 lung
NCI/ADR-RES ovarian = test system: NCI/ADR-RES ovarian
OVCAR-3 ovarian = test system: OVCAR-3 ovarian
OVCAR-4 ovarian = test system: OVCAR-4 ovarian
OVCAR-5 ovarian = test system: OVCAR-5 ovarian
OVCAR-8 ovarian = test system: OVCAR-8 ovarian
PC-3 prostate = test system: PC-3 prostate
RPMI-8226 leukemia = test system: RPMI-8226 leukemia
RXF 393 renal = test system: RXF 393 renal
SF-268 CNS = test system: SF-268 CNS
SF-295 CNS = test system: SF-295 CNS
SF-539 CNS = test system: SF-539 CNS
SK-MEL-2 melanoma = test system: SK-MEL-2 melanoma
SK-MEL-28 melanoma = test system: SK-MEL-28 melanoma
SK-MEL-5 melanoma = test system: SK-MEL-5 melanoma
SK-OV-3 ovarian = test system: SK-OV-3 ovarian
SN12C renal = test system: SN12C renal
SNB-19 CNS = test system: SNB-19 CNS
SW-620 colon = test system: SW-620 colon
T-47D breast = test system: T-47D breast
TK-10 renal = test system: TK-10 renal
U251 CNS = test system: U251 CNS
UACC-257 melanoma = test system: UACC-257 melanoma
UACC-62 melanoma = test system: UACC-62 melanoma
UO-31 renal = test system: UO-31 renal
HL-60(TB) leukemia = test system: HL-60(TB) leukemia
SNB-75 CNS = test system: SNB-75 CNS
SR leukemia = test system: SR leukemia

`NC(Cc1ccccc1)(C(=O)O)C(=O)O` was tested, and the TGI (786-0 renal) was > 100 µM, the TGI (A498 renal) was > 100 µM and the TGI (A549 NSCLC) was > 100 µM. For the same compound, the TGI (ACHN renal) was > 100 µM, the TGI (BT-549 breast) was > 100 µM and the TGI (CAKI-1 renal) was > 100 µM. The TGI (CCRF-CEM leukemia) was > 100 µM, the TGI (COLO 205 colon) was > 100 µM and the TGI (DU-145 prostate) was > 100 µM. For the same compound, the TGI (EKVX NSCLC) was > 100 µM, the TGI (HCC-2998 colon) was > 100 µM and the TGI (HCT-116 colon) was > 100 µM. The TGI (HCT-15 colon) was > 100 µM, the TGI (HOP-62 NSCLC) was > 100 µM and the TGI (HOP-92 NSCLC) was > 100 µM. The TGI (HS 578T breast) was > 100 µM, the TGI (HT29 colon) was > 100 µM and the TGI (IGROV1 ovarian) was > 100 µM. The TGI (K-562 leukemia) was > 100 µM, the TGI (KM12 colon) was > 100 µM and the TGI (LOX IMVI melanoma) was > 100 µM. For the same compound, the TGI (M14 melanoma) was > 100 µM, the TGI (MALME-3M melanoma) was > 100 µM and the TGI (MCF7 breast) was > 100 µM. The TGI (MDA-MB-231 breast) was > 100 µM, the TGI (MDA-MB-435) was > 100 µM and the TGI (MDA-N) was > 100 µM. For the same compound, the TGI (MOLT-4 leukemia) was > 100 µM, the TGI (NCI-H226 lung) was > 100 µM and the TGI (NCI-H23 lung) was > 100 µM. The TGI (NCI-H460 lung) was > 100 µM, the TGI (NCI-H522 lung) was > 100 µM and the TGI (NCI/ADR-RES ovarian) was > 100 µM. The TGI (OVCAR-3 ovarian) was > 100 µM, the TGI (OVCAR-4 ovarian) was > 100 µM and the TGI (OVCAR-5 ovarian) was > 100 µM. The TGI (OVCAR-8 ovarian) was > 100 µM, the TGI (PC-3 prostate) was > 100 µM and the TGI (RPMI-8226 leukemia) was > 100 µM. For the same compound, the TGI (RXF 393 renal) was > 100 µM, the TGI (SF-268 CNS) was > 100 µM and the TGI (SF-295 CNS) was > 100 µM. The TGI (SF-539 CNS) was > 100 µM, the TGI (SK-MEL-2 melanoma) was > 100 µM and the TGI (SK-MEL-28 melanoma) was > 100 µM. For the same compound, the TGI (SK-MEL-5 melanoma) was > 100 µM, the TGI (SK-OV-3 ovarian) was > 100 µM and the TGI (SN12C renal) was > 100 µM. For the same compound, the TGI (SNB-19 CNS) was > 100 µM, the TGI (SW-620 colon) was > 100 µM and the TGI (T-47D breast) was > 100 µM. The TGI (TK-10 renal) was > 100 µM, the TGI (U251 CNS) was > 100 µM and the TGI (UACC-257 melanoma) was > 100 µM. For the same compound, the TGI (UACC-62 melanoma) was > 100 µM and the TGI (UO-31 renal) was > 100 µM.

For `O=C(CCN1CCOCC1)Nc1ccc2sc3ccccc3c(=O)c2n1`, the TGI (786-0 renal) was > 100 µM, the TGI (A549 NSCLC) was > 100 µM and the TGI (ACHN renal) was > 100 µM. For the same compound, the TGI (BT-549 breast) was > 100 µM, the TGI (CAKI-1 renal) was 63.8 µM and the TGI (CCRF-CEM leukemia) was > 100 µM. For the same compound, the TGI (COLO 205 colon) was > 100 µM, the TGI (DU-145 prostate) was > 100 µM and the TGI (EKVX NSCLC) was > 100 µM. For the same compound, the TGI (HCC-2998 colon) was > 100 µM, the TGI (HCT-116 colon) was > 100 µM and the TGI (HCT-15 colon) was > 100 µM. The TGI (HL-60(TB) leukemia) was > 100 µM, the TGI (HOP-62 NSCLC) was > 100 µM and the TGI (HOP-92 NSCLC) was > 100 µM. The TGI (HS 578T breast) was > 100 µM, the TGI (HT29 colon) was > 100 µM and the TGI (IGROV1 ovarian) was > 100 µM. For the same compound, the TGI (K-562 leukemia) was > 100 µM, the TGI (KM12 colon) was > 100 µM and the TGI (LOX IMVI melanoma) was > 100 µM. The TGI (M14 melanoma) was > 100 µM, the TGI (MALME-3M melanoma) was 85.2 µM and the TGI (MCF7 breast) was > 100 µM. The TGI (MDA-MB-231 breast) was > 100 µM, the TGI (MDA-MB-435) was > 100 µM and the TGI (MDA-N) was > 100 µM. The TGI (NCI-H23 lung) was > 100 µM, the TGI (NCI-H460 lung) was > 100 µM and the TGI (NCI-H522 lung) was 45.9 µM. The TGI (NCI/ADR-RES ovarian) was > 100 µM, the TGI (OVCAR-3 ovarian) was > 100 µM and the TGI (OVCAR-4 ovarian) was > 100 µM. For the same compound, the TGI (OVCAR-5 ovarian) was > 100 µM, the TGI (OVCAR-8 ovarian) was > 100 µM and the TGI (PC-3 prostate) was > 100 µM. The TGI (RPMI-8226 leukemia) was > 100 µM, the TGI (SF-268 CNS) was > 100 µM and the TGI (SF-295 CNS) was > 100 µM. For the same compound, the TGI (SF-539 CNS) was > 100 µM, the TGI (SK-MEL-2 melanoma) was > 100 µM and the TGI (SK-MEL-28 melanoma) was > 100 µM. The TGI (SK-MEL-5 melanoma) was 82.5 µM, the TGI (SK-OV-3 ovarian) was > 100 µM and the TGI (SN12C renal) was > 100 µM. For the same compound, the TGI (SNB-19 CNS) was > 100 µM, the TGI (SNB-75 CNS) was 85.1 µM and the TGI (SR leukemia) was > 100 µM. For the same compound, the TGI (SW-620 colon) was > 100 µM, the TGI (T-47D breast) was > 100 µM and the TGI (TK-10 renal) was > 100 µM. For the same compound, the TGI (U251 CNS) was > 100 µM, the TGI (UACC-257 melanoma) was > 100 µM and the TGI (UACC-62 melanoma) was > 100 µM. For the same compound, the TGI (UO-31 renal) was > 100 µM.
